Peptide text beside a SMILES is read from it.
Tested on: melanin-forming cells (B16F10 cell line)
Assay: Cytotoxicity test (MTT assay)
Assay type: cell-based, mouse
Details: B16F10, 1 uM to 200 uM, 72 hours, serum-free medium
Description: After melanin-forming cells (B16F10 cell line) dispensed in 48-well culture plates were incubated in a 37° C. incubator for 24 hours, the medium for each plate was removed and replaced with serum-free medium, and then the cells were treated with the peptide of the present invention at different concentrations (1, 10, 50, 100, 150, 200 uM). After the cells were incubated for 72 hours, the MTT reagent was added, followed by reaction for 4 hours. Then, the generated formazan was dissolved in DMSO, and the absorbance was measured at 560 nm.

SMILES: CCCC(CCC)C(=O)N[C@H](C(=O)N[C@@H](Cc1c[nH]c2ccccc12)C(=O)N[C@@H](CO)C(=O)N[C@@H](CC(C)C)C(=O)N[C@@H](CC(=O)O)C(=O)N[C@H](C(=O)N[C@@H](CCC(N)=O)C(=O)N[C@@H](Cc1ccc(O)cc1)C(=O)NCC(=O)NCC(=O)N[C@@H](CCCNC(=N)N)C(=O)NCC(=O)N[C@@H](CC(=O)O)C(=O)O)[C@@H](C)O)[C@@H](C)CC [Valprooyl-Ile-Trp-Ser-Leu-Asp-Thr-Gln-Tyr-Gly-Gly-Arg-Gly-Asp-COOH] (HELM PEPTIDE1{[CCCC(CCC)C(=O)[*:2]].I.W.S.L.D.T.Q.Y.G.G.R.G.D}$$$$V2.0)
- cytotoxicity on melanocytes (MTT assay): no cytotoxicity was observed

Reference: patent publication US10080775B2, “Peptide having skin whitening activity, and use thereof” (CAREGEN CO., LTD., priority 2017, dated 2018)
